# Marks after values point to notes of the source that are not given here.
# Experiments:
# [1] = test system: rat heart; experiment: Rat heart isolated model, recovery from global ischemia; type: in vivo; conditions: for Percentage recovery relative to control levels: global ischemia; for Change in EDP / Recovery from 30 min Global Ischemia (LVDP): treatment during ischemia and reperfusion, mean SEM; for Change in EDP: end diastolic pressure; for Recovery from 30 min Global Ischemia (LVDP): left ventricular developed pressure
# Description: In addition, treatment with compound 4 also appears to keep the heart more relaxed than treatment with either control or NBMPR, an added benefit not seen with the standard agent.
# [2] = target: T1, es nucleoside transporter (Homo sapiens, UniProt Q99808); experiment: Flow cytometric es nucleoside transporter binding assay (displacement of 5-(SAENTA)-X8-fluorescein) in K562 cells; conditions: for Ki: 25 nM 5-(SAENTA)-X8-fluorescein, 45 minutes, room temperature, read-out: Flow Cytometrically-Determined Ki Values; for Ki at the es transporter, in words: displacement of 5-(SAENTA)-X8-fluorescein
# T1 construct: endogenous in cells; host or cells: K562 human chronic myelogenous leukemia cells (intact cells)
# T1 sequence (Q99808 1-456): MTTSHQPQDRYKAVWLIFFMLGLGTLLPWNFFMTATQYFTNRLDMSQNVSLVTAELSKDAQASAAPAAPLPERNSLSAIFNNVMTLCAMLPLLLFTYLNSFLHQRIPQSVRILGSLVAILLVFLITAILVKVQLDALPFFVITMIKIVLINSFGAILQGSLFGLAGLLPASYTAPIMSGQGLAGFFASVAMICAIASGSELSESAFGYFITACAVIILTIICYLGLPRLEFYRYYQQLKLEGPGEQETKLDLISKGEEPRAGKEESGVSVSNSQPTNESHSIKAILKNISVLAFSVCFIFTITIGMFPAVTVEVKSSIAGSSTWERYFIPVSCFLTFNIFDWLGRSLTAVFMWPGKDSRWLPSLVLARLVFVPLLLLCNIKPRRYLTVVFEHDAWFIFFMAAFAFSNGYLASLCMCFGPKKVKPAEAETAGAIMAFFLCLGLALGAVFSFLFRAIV
# Procedure: FIG. 1 is a graph showing the equilibrium displacement of SAENTA-fluorescein ligand by of new tetrahydroisoquinoline constrained NBMPR analogs in K562 cells. Cells are incubated with 25 nM SAENTA fluorescein in the presence of inhibitor for 45 minutes at room temperature and analyzed by flow cytometry.
# Exemplary compounds are tested to determine their es nucleoside transporter binding ability by a flow cytometric assay (Buolamwini et al., 1994). Human leukemia K562 cells growing in RPMI 1640 medium are washed once and suspended at 1.6×10^6 cells/ml in phosphate-buffered saline at pH 7.4, and incubated with 5-(SAENTA)-X8-fluorescein (25 nM) in the presence or absence of varying concentrations of test compounds at room temperature for 45 minutes. Flow cytometric measurements for cell-associated fluorescence are then performed with a FACSCalibur (Becton Dickinson, San Jose, Calif.) equipped with a 15 mW-argon laser (Molecular Resources Flow Cytometry Facility, University of Tennessee Health Sciences Center). In each assay, 5,000 cells are analyzed from suspensions of 4×10^5 cells/ml. The units of fluorescence are arbitrary channel numbers. Percentage (%) of control (i.e. es transporter-specific fluorescence in the presence of SAENTA-fluor without test compounds) is calculated for each sample by the equation below.
# [formula] • where SFs is the es transporter-specific fluorescence of test samples, and SFf is the es transporter-specific fluorescence of the SAENTA-fluor ligand standard.
# The results are fed into the PRISM program (GraphPad, San Diego, Calif.) to derive concentration-dependent curves using nonlinear regression, as shown in FIG. 1. From these curves, the IC50 values are obtained that are used to compare abilities of the new compounds to displace the es transporter-specific ligand (5-(SAENTA)-X8-fluorescein (Buolamwini et al., 1994).
# Examples of the present invention (2-5) are tested along with 6-(1,2,3,4-tetrahydroisoquinolinyl)purine riboside (23) as es transporter binding ligands by a facile competitive binding flow cytometric assay using the K562 chronic myelogenous leukemia cell line. The high-affinity es transporter fluorescent ligand, 5-(SAENTA)-X8-fluorescein is used as the competitive ligand to be displaced by the test compounds.
# [3] = target: T2, es transporter (Homo sapiens, UniProt Q99808); conditions: product of in vivo loss of the nitrobenzyl group of NBMPR; cited from earlier work
# T2 sequence (Q99808 1-456): T1 sequence (Q99808 1-456)
# [4] = test system: nucleoside transporter (uridine uptake in JB6 cells); experiment: Inhibition of [3H]uridine uptake in JB6 cells; type: cell-based; conditions: 1 μM [3H]uridine, 10-second uptake
# Procedure: FIG. 2 is a graph showing inhibition of [^3H]uridine uptake by NBMPR (•) and a novel tetrahydroisoquinoline analogue compound 12 (◯) in JB6 cells. Cells in logarithmic phase of growth are incubated with 1 μM […] and 10-second uptake measurements were performed as described in Paterson et al. (1983). The data points are mean ±std for triplicate samples.
# Cells in logarithmic phase of growth are incubated with 1 μM [^3H]uridine and 10-second uptake measurements are performed as described in Paterson et al. (1983).
smiles,measurement,setting,value
"O=[N+]([O-])c1ccc(CSc2ncnc3c2ncn3[C@@H]2O[C@H](CO)[C@@H](O)[C@H]2O)cc1 [Compound 1, nitrobenzylthioinosine, reference compound]",Percentage recovery relative to control levels,[1],doubles
same,Change in EDP,[1],65.2 ± 3.2%
same,Recovery from 30 min Global Ischemia (LVDP),[1],24.40 ± 3.6% (n = 5)^d
O=[N+]([O-])c1ccc2c(c1)CCN(c1ncnc3c1ncn3[C@@H]1O[C@H](CO)[C@@H](O)[C@H]1O)C2 [Compound 3],"IC50 / binding to the es transporter (inhibition of SAENTA-fluor binding), in words, FIG. 1",[2],"bound as tightly as the prototype compound, NBMPR"
same,Ki,[2],15 nM
same,melting point,,148 to 149 °C
O=[N+]([O-])c1cccc2c1CN(c1ncnc3c1ncn3[C@@H]1O[C@H](CO)[C@@H](O)[C@H]1O)CC2 [Compound 5],"IC50 / binding to the es transporter (inhibition of SAENTA-fluor binding), in words, FIG. 1",[2],much less potent inhibitors
same,Ki,[2],300 nM
same,"Ki at the es transporter, in words",[2],high nanomolar concentrations
O=[N+]([O-])c1cccc2c1CCN(c1ncnc3c1ncn3[C@@H]1O[C@H](CO)[C@@H](O)[C@H]1O)C2 [Compound 2],"IC50 / binding to the es transporter (inhibition of SAENTA-fluor binding), in words, FIG. 1",[2],much less potent inhibitors
same,Ki,[2],250 nM
same,"Ki at the es transporter, in words",[2],high nanomolar concentrations
OC[C@H]1O[C@@H](n2cnc3c(=S)nc[nH]c32)[C@H](O)[C@@H]1O [mercaptopurine riboside],Decrease in es transporter affinity compared with NBMPR,[3],≤ 1000 fold
O=[N+]([O-])c1ccc2c(c1)CN(c1ncnc3c1ncn3[C@@H]1O[C@H](CO)[C@@H](O)[C@H]1O)CC2 [Compound 4],"IC50 / binding to the es transporter (inhibition of SAENTA-fluor binding), in words, FIG. 1",[2],low nanomolar range
same,Ki,[2],0.45 nM
same,Percentage recovery relative to control levels,[1],triples
same,Change in EDP,[1],52.5 ± 6.6%^f
same,Recovery from 30 min Global Ischemia (LVDP),[1],33.60 ± 9.8% (n = 4)^e
same,"IC50 for inhibition of uridine uptake, FIG. 2",[4],single digit nanomolar range
"OC[C@H]1O[C@@H](n2cnc3c(N4CCc5ccccc5C4)ncnc32)[C@H](O)[C@@H]1O [Compound 23, 6-(1,2,3,4-tetrahydroisoquinolinyl)purine riboside]",Ki,[2],150 nM
